# Assay results as given in US20220347206A1 (NPO Petrovax Pharm, LLC, priority 2021, published 2022).
# Several values for one entry are separate records, joined by “and”; a condition that tells them apart may be missing. Identical values can stand only once.
# Tests used:
# natural killer cell = settings: in vitro; cited from earlier work
# COVID-19 [1] = settings: human, in vivo
# immature DC = settings: in vitro; cited from earlier work
# T-cell = settings: in vitro; cited from earlier work
# leukocytes = settings: after penetrating leukocytes by endocytosis; cited from earlier work
# COVID-19 [2] = settings: human, in vivo; remark: listed apart in the source
substance,measurement,setting,value
Azoximer bromide [AZB],Natural killer cell degranulation,natural killer cell,increase natural killer cell degranulation
same,"Absolute number of ARI cases, control group versus main (AZB) group",COVID-19 [1],more than 10 times higher
same,"Afflicted by ARI, number",COVID-19 [1],32
same,"Afflicted by ARI, percent",COVID-19 [1],13.1%
same,"Afflicted by acute respiratory illness (ARI), percent",COVID-19 [1],0.3%
same,Cases of ARI,COVID-19 [1],3 cases
same,Cases of COVID-19,COVID-19 [1],1 case
same,"Confirmed diagnosis of COVID-19 (PCR or antibody test), number",COVID-19 [1],2
same,"Confirmed diagnosis of COVID-19 (PCR or antibody test), percent",COVID-19 [1],0.3%
same,"Confirmed diagnosis of COVID-19 (PCR test data), number",COVID-19 [1],6
same,"Confirmed diagnosis of COVID-19 (PCR test data), percent",COVID-19 [1],2.4%
same,"Number of ARI cases, control group versus main (AZB) group",COVID-19 [1],more than 30 times
same,"Participants who developed pneumonia, percent (reported ARI cases)",COVID-19 [1],0%
same,Immature DC expansion,immature DC,increase immature DC expansion
same,T-cell proliferation,T-cell,induce T-cell proliferation
same,Intracellular hydrogen peroxide,leukocytes,significant dose-dependent increases
same,Body temperature normalisation (≤37° C.),COVID-19 [2],all patients had a normal body temperature
same,"Day 15 OS score 1 (not hospitalized, no limitations on activities), %",COVID-19 [2],1.3% and 1 (1.3) %
same,"Day 15 OS score 2 (not hospitalized, limitation on activities), %",COVID-19 [2],35.1% and 27 (35.1) %
same,"Day 15 OS score 3 (hospitalized, not requiring supplemental oxygen), %",COVID-19 [2],45.5% and 35 (45.5) %
same,"Day 15 OS score 4 (hospitalized, requiring supplemental oxygen), %",COVID-19 [2],9 (11.7) %
same,"Day 15 OS score 5 (hospitalized, on noninvasive ventilation or high flow oxygen devices), %",COVID-19 [2],3.9% and 3 (3.9) %
same,"Day 15 OS score 6 (hospitalized, on invasive mechanical ventilation or extracorporeal membrane oxygenation), %",COVID-19 [2],2.6% and 2 (2.6) %
same,"Day 15 OS score 7 (death), %",COVID-19 [2],0 (0.0) %
same,"Day 15 Ordinal Scale score, mean",COVID-19 [2],2.90
same,"Day 28 Mortality: alive, %",COVID-19 [2],77 (100.0) %
same,"Day 28 Mortality: dead, %",COVID-19 [2],0 (0.0) %
same,"Duration of hospitalization, mean",COVID-19 [2],19.32 days and 19.13^g days and 19.32^h days
same,"Duration of hospitalization, median",COVID-19 [2],19.0 days and 19.0^c days
same,Improvement probability (NEWS),COVID-19 [2],> 80%
same,Mean (SD) NEWS,COVID-19 [2],1.08 (1.18)
same,Mean C-reactive protein (CRP),COVID-19 [2],13.21 mg/L
same,Mean oxygen saturation,COVID-19 [2],96.90% and 96.98%
same,Mean time to an OS score improving to ≤2,COVID-19 [2],15.9 days
same,Mean time to vanishing signs of pneumonia,COVID-19 [2],18.45 days
same,Median C-reactive protein (CRP),COVID-19 [2],8.5 mg/L
same,Number of patients requiring respiratory support (OS=4-6),COVID-19 [2],14 patients
same,"Patients with an OS score of 2 or 3, percent",COVID-19 [2],93.5%
same,"Pneumonia presence, number of patients",COVID-19 [2],18 patients
same,"Pneumonia presence, percent of patients",COVID-19 [2],23.4%
same,Probability of achieving a normal body temperature,COVID-19 [2],90%
same,Respiratory support requirement,COVID-19 [2],No patients required respiratory support
same,SpO2 value of the one patient below the reference range,COVID-19 [2],94%
